Measurements as given in PubChem BioAssay AID248 (DTP/NCI, 2004).
“And” between values parts separate entries of the source, which are not always exact repeats. Identical values can stand only once. Toxic doses and inconclusive results are not listed. Cut-off read from the data, not from the text of the source: active = T/C of 150% or more; inactive = T/C below 125%.

System: L1210 leukemia ip in BDF1 mice, survival T/C
Assay: NCI In Vivo Anticancer Drug Screen. Data for tumor model L1210 Leukemia (intraperitoneal) in B6D2F1 (BDF1) mice
Conditions: endpoint: mean survival time, higher = longer survival
Method in brief: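 Value reflects the ratio of survival in compound-treated mice to survival in vehicle-treated controls, with both groups carrying the same transplanted tumor.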

[1] = dose: 100.0 mg/kg/injection, schedule: Q01DX001 (ip), vehicle: carboxymethylcellulose (CMC)
[2] = dose: 200.0 mg/kg/injection, schedule: Q01DX001 (ip), vehicle: carboxymethylcellulose (CMC)
[3] = dose: 400.0 mg/kg/injection, schedule: Q01DX001 (ip), vehicle: carboxymethylcellulose (CMC)
[4] = dose: 100.0 mg/kg/injection, schedule: Q01DX009 (ip), vehicle: saline
[5] = dose: 200.0 mg/kg/injection, schedule: Q01DX009 (ip), vehicle: saline
[6] = dose: 100.0 mg/kg/injection, schedule: Q04DX003 (ip), vehicle: saline with Tween-80
[7] = dose: 200.0 mg/kg/injection, schedule: Q04DX003 (ip), vehicle: saline with Tween-80
[8] = dose: 100.0 mg/kg/injection, schedule: Q04DX003 (ip), vehicle: saline

Measured: T/C

CCC(=O)c1ccc(NC(=O)Nc2ccc(C(=O)CC)cc2)cc1
inactive: dose: 20.0 mg/kg/injection, schedule: Q01DX009 (ip), vehicle: saline 96 % of control | dose: 40.0 mg/kg/injection, schedule: Q01DX009 (ip), vehicle: saline 93 % of control | dose: 80.0 mg/kg/injection, schedule: Q01DX009 (ip), vehicle: saline 102 % of control | dose: 160.0 mg/kg/injection, schedule: Q01DX009 (ip), vehicle: saline 95 % of control | dose: 320.0 mg/kg/injection, schedule: Q01DX009 (ip), vehicle: saline 92 % of control

CN(C)C=NC1CCC(C(C)(C)C)CC1 (stereo not given)
inactive: dose: 12.5 mg/kg/injection, schedule: Q01DX009 (ip), vehicle: Klucel (hydroxypropylcellulose) (HPC) 96 % of control | dose: 12.5 mg/kg/injection, schedule: Q04DX003 (ip), vehicle: Klucel (hydroxypropylcellulose) (HPC) 103 % of control | dose: 25.0 mg/kg/injection, schedule: Q01DX009 (ip), vehicle: Klucel (hydroxypropylcellulose) (HPC) 102 % of control | dose: 25.0 mg/kg/injection, schedule: Q04DX003 (ip), vehicle: Klucel (hydroxypropylcellulose) (HPC) 95 % of control | dose: 50.0 mg/kg/injection, schedule: Q04DX003 (ip), vehicle: Klucel (hydroxypropylcellulose) (HPC) 93 % of control

COc1cc(CCCc2cccc(O)c(=O)c2)cc(OC)c1OC
inactive: dose: 100.0 mg/kg/injection, schedule: Q04DX002 (ip), vehicle: saline with Tween-80 91 % of control and 103 % of control | dose: 200.0 mg/kg/injection, schedule: Q04DX002 (ip), vehicle: saline with Tween-80 105 % of control and 89 % of control | dose: 400.0 mg/kg/injection, schedule: Q04DX002 (ip), vehicle: saline with Tween-80 108 % of control and 116 % of control

O=C1c2ccccc2-c2cccc(Cl)c21
inactive: [1] 101 % of control | [2] 93 % of control | [3] 104 % of control

C1CCC(C2CC2)CC1
inactive: dose: 50.0 mg/kg/injection, schedule: Q01DX009 (ip), vehicle: saline 97 % of control | [4] 94 % of control | [5] 94 % of control

O=C(O)c1cc(-c2ccc3cc4c(cc3c2)OCO4)nc2ccccc12
inactive: dose: 75.0 mg/kg/injection, schedule: Q01DX001 (ip), vehicle: saline 97 % of control | dose: 150.0 mg/kg/injection, schedule: Q01DX001 (ip), vehicle: saline 101 % of control | dose: 300.0 mg/kg/injection, schedule: Q01DX001 (ip), vehicle: saline 93 % of control

O=S(=O)(F)c1ccc(Cl)cc1
inactive: [6] 101 % of control | [7] 89 % of control

O=[N+]([O-])c1c[nH]c2ncnc(Cl)c12
inactive: dose: 50.0 mg/kg/injection, schedule: Q01DX001 (ip), vehicle: carboxymethylcellulose (CMC) 98 % of control | [1] 89 % of control | [2] 106 % of control

CCOC(=O)Cc1cnc(C)[nH]c1=O
inactive: dose: 100.0 mg/kg/injection, schedule: Q01DX009 (ip), vehicle: Klucel (hydroxypropylcellulose) (HPC) 95 % of control | dose: 200.0 mg/kg/injection, schedule: Q01DX009 (ip), vehicle: Klucel (hydroxypropylcellulose) (HPC) 101 % of control | dose: 400.0 mg/kg/injection, schedule: Q01DX009 (ip), vehicle: Klucel (hydroxypropylcellulose) (HPC) 96 % of control

CCCCCCC1N(Cc2ccccc2OC)CCCN1Cc1ccccc1OC
inactive: [1] 100 % of control | [2] 105 % of control | [3] 94 % of control

COc1ccc(CC(C)=O)cc1
inactive: dose: 50.0 mg/kg/injection, schedule: Q04DX003 (ip), vehicle: saline 96 % of control | [8] 105 % of control

CCOc1ccccc1NC(=O)c1cc2ccccc2cc1O
inactive: [4] 102 % of control | [8] 98 % of control | [5] 109 % of control | dose: 200.0 mg/kg/injection, schedule: Q04DX003 (ip), vehicle: saline 102 % of control | dose: 400.0 mg/kg/injection, schedule: Q01DX009 (ip), vehicle: saline 102 % of control | dose: 400.0 mg/kg/injection, schedule: Q04DX003 (ip), vehicle: saline 100 % of control

Nc1nnc(N)n1N
inactive: dose: 87.5 mg/kg/injection, schedule: Q04DX003 (ip), vehicle: Klucel (hydroxypropylcellulose) (HPC) 105 % of control | dose: 175.0 mg/kg/injection, schedule: Q04DX003 (ip), vehicle: Klucel (hydroxypropylcellulose) (HPC) 100 % of control | dose: 350.0 mg/kg/injection, schedule: Q04DX003 (ip), vehicle: Klucel (hydroxypropylcellulose) (HPC) 103 % of control

O=c1ccc2cc(OC3OC(CO)C(O)C(O)C3O)c(O)cc2o1 (stereo not given)
inactive: dose: 62.5 mg/kg/injection, schedule: Q01DX015 (ip), vehicle: carboxymethylcellulose (CMC) 95 % of control | dose: 125.0 mg/kg/injection, schedule: Q01DX015 (ip), vehicle: carboxymethylcellulose (CMC) 105 % of control | dose: 250.0 mg/kg/injection, schedule: Q01DX015 (ip), vehicle: carboxymethylcellulose (CMC) 100 % of control | [3] 111 % of control | dose: 600.0 mg/kg/injection, schedule: Q01DX001 (ip), vehicle: carboxymethylcellulose (CMC) 90 % of control | dose: 800.0 mg/kg/injection, schedule: Q01DX001 (ip), vehicle: carboxymethylcellulose (CMC) 92 % of control | dose: 1000.0 mg/kg/injection, schedule: Q01DX001 (ip), vehicle: carboxymethylcellulose (CMC) 101 % of control

O=C(Nc1ccc(NC2=NCCN2)cc1)c1cc(Cl)cc(C(=O)Nc2ccc(NC3=NCCN3)cc2)c1
inactive: dose: 7.5 mg/kg/injection, schedule: Q01DX010 (ip), vehicle: saline 100 % of control | dose: 15.0 mg/kg/injection, schedule: Q01DX010 (ip), vehicle: saline 95 % of control | dose: 15.0 mg/kg/injection, schedule: Q01DX Z (ip), vehicle: saline 105 % of control | dose: 30.0 mg/kg/injection, schedule: Q01DX Z (ip), vehicle: saline 105 % of control

O=C1c2ccccc2Cc2ccccc21
inactive: dose: 100.0 mg/kg/injection, schedule: Q01DX001 (ip), vehicle: saline 97 % of control | dose: 100.0 mg/kg/injection, schedule: Q04DX002 (ip), vehicle: gum acacia 103 % of control | dose: 200.0 mg/kg/injection, schedule: Q01DX001 (ip), vehicle: saline 95 % of control | dose: 200.0 mg/kg/injection, schedule: Q04DX002 (ip), vehicle: gum acacia 100 % of control | dose: 400.0 mg/kg/injection, schedule: Q01DX001 (ip), vehicle: saline 106 % of control | dose: 400.0 mg/kg/injection, schedule: Q04DX002 (ip), vehicle: gum acacia 106 % of control

CC1=CC(=O)N(NC(N)=O)C1=O
inactive: [6] 94 % of control | dose: 200.0 mg/kg/injection, schedule: Q01DX009 (ip), vehicle: saline with Tween-80 90 % of control | [7] 102 % of control | dose: 400.0 mg/kg/injection, schedule: Q04DX003 (ip), vehicle: saline with Tween-80 105 % of control
